The subject of data set [1] is EPO receptor on MEL cells. The experiment in a line: Erythropoietin surface binding assay on MEL cell monolayers. Details: species or system mouse. The following applies: single affinity; radioiodinated human EPO, 8 hours at 4° C.; read-out: affinity of MEL cell EPO-R for EPO. How it is done:
FIG. 4 is a saturation curve showing the binding of iodinated EPO to MEL cells. Non-specific binding was determined by co-incubation with 100 nM of unlabeled EPO. The MEL cells were grown on fibronectin monolayers and were incubated with various concentrations of radioiodinated human EPO for eight hours at 4° C. The specific binding is shown as the difference between total and non-specific binding. The inset is a Scatchard plot of the same data. […] For these experiments, MEL cells, grown as monolayers on fibronectin coated dishes, were incubated for eight hours at 4° C. with ^125 I EPO. Specific binding and nonspecific binding of [^125 I]-EPO, measured in the presence of 100 nM unlabeled EPO was determined. Nonspecific binding was approximately half of the total (=specific plus nonspecific) binding. Because of the relatively low number of EPO-R on MEL cells and, therefore, the small specific binding observed at low concentrations of [^125 I-EPO], in the 10-50 pM range, it is not possible to rule out a high affinity EPO-R in this range. […] Monolayers were washed, solubilized, and counted in the gamma counter as described. […] The radioactivity bound in the assays with excess unlabeled erythropoietin (nonspecific binding) was subtracted from the total binding to yield the specific binding. […]

The target in the next data set is human EPO receptor. The experiment in a line: Erythropoietin surface binding assay on stable CHO lines expressing the human EPO receptor. The following applies: one hour at 37° C. How it is done:
Confluent monolayers of MEL cells, grown in 60 mm bacteriophage petri dishes pre-coated with fibronectin, were prepared (Patel and Lodish, supra (1987)). Confluent monolayers of COS-1 cells, transfected by the DEAE dextran method 72 hours before the binding assay with either two micrograms of clone 190 cDNA in pXM or two micrograms of pXM without cDNA insert (mock-transfected) per monolayer, were prepared. Monolayers were washed at 4° C. with HBS/Hepes three times. Radioiodinated EPO (10 pM to 2nM range) was added to each monolayer in LBB. Incubations were performed at 4° C. for eight hours with gentle rocking. Monolayers were washed, solubilized, and counted in the gamma counter as described. Assays for nonspecific binding were performed in which the assay mixture contained a 100-fold excess 1(100 nM) of unlabeled erythropoietin. The radioactivity bound in the assays with excess unlabeled erythropoietin (nonspecific binding) was subtracted from the total binding to yield the specific binding. All binding assays were run in duplicate. The level of cell surface expression of the human EPO receptor was determined by the erythropoietin surface binding assay, described above for the expression of the murine EPO receptor in COS-1 cells, except that radioiodinated EPO, from 10 pM to 2 nM, was bound for one hour at 37° C. in the presence of 0.02% (w/v) sodium azide and 1% (v/v) aprotinin.

The target of another data set is EPO receptor. The following applies: most cell surface binding studies; read-out: Kd, single class of binding sites; cited from earlier work.
The target in data set [2] is EPO-responsive splenic erythroblasts. The note with it: FVA-injected mice, cited from earlier work.
The conditions of data set [3]: purified, homogeneous erythropoietin; cited from earlier work.
For data set [4], the system named is recombinant murine EPO receptor expressed in COS cells. Description: Erythropoietin surface binding assay on COS-EPO-R transfectants (clone 190). Details: species or system mouse. How it is done:
FIG. 5 is a saturation curve showing the binding of iodinated EPO to cells expressing recombinant EPO-receptors. COS-EPO-R transfectants were incubated with various concentrations of radioiodinated human EPO for eight hours at 4° C. Non-specific binding was determined by incubating radioiodinated EPO with COS-1 monolayers, mock treated with the pXM vector (without the EPO-R cDNA insert). Also, for comparison, one binding point was determined for [^125 I]-EPO binding to COS EPO-R transfectants in the presence of […] unlabeled EPO. The inset is a Scatchard plot of the same data. Binding was compared for COS transfectants expressing EPO-R (specific binding) versus COS cells mock-transfected with the pXM plasmid without the EPO-R cDNA insert (non-specific binding). At all EPO concentrations, specific binding was approximately […] the binding to mock-transfected cells. By the above criterion, over 85% of this binding is deemed specific, though the "non-specific" binding could represent low-affinity binding to the transfected EPO receptor. […] Confluent monolayers of MEL cells, grown in 60 mm bacteriophage petri dishes pre-coated with fibronectin, were prepared (Patel and Lodish, supra (1987)). Confluent monolayers of COS-1 cells, transfected by the DEAE dextran method 72 hours before the binding assay with either two micrograms of clone 190 cDNA in pXM or two micrograms of pXM without cDNA insert (mock-transfected) per monolayer, were prepared. Monolayers were washed at 4° C. with HBS/Hepes three times. Radioiodinated EPO (10 pM to 2nM range) was added to each monolayer in LBB. Incubations were performed at 4° C. for eight hours with gentle rocking. Monolayers were washed, solubilized, and counted in the gamma counter as described. Assays for nonspecific binding were performed in which the assay mixture contained a 100-fold excess 1(100 nM) of unlabeled erythropoietin. The radioactivity bound in the assays with excess unlabeled erythropoietin (nonspecific binding) was subtracted from the total binding to yield the specific binding. All binding assays were run in duplicate.

A further data set has as its system FDCPE cells. The experiment in a line: Inhibition of the EPO response of FDCPE cells by secreted EPO receptor. The data set is classed as cell-based, mouse. The following applies: 0.4, 0.8 and 1 u/ml EPO; serial dilutions of CHO conditioned media (ca. 0.5 μg/ml secreted receptor). How it is done:
The FDCPE and 32DE cell lines were further characterized by their dose dependent response to EPO. A 96 well plate was seeded with 1×10^4 cells/well and incubated with EPO (0.0001 to 10 u/ml) for 24 hours and then labelled with [^3 H]-thymidine for 4hr, the cells were collected and counted for thymidine incorporation. The cells respond to EPO dose dependent manner from 0.01 to 1 u/ml.
FDCPE cells were incubated and assayed with either 0.4, 0.8 and 1 u/ml of EPO as described above but also with serial dilutions of media from a CHO line expressing the secreted EPO receptor (ca. 0.5 μg/ml).

Read-outs that look alike come from different tables or passages of the source.

Take erythropoietin [EPO]: the Kd is around 0.24 nM in data set [1]; 0.126 nM at human EPO receptor (CHO cell line 9'.250, 34% of sites, Scatchard analysis, read-out: affinity for EPO, higher affinity sites); 0.66 nM at human EPO receptor (CHO cell line 9'.250, Scatchard analysis, read-out: affinity for EPO, remainder of sites); 3 nM on human EPO receptor (CHO cell line 10'.1.25, read-out: affinity for EPO, single affinity); around 0.8 nM on EPO receptor; 0.1 nM in data set [2] (read-out: dissociation constant, high affinity binding site). For the same molecule, the Kd in data set [2] (read-out: dissociation constant, low affinity binding site) was 0.8 nM; in data set [4] (COS transfectants, Scatchard analysis, 8 hours at 4° C., read-out: dissociation constant, high affinity receptor), 0.03 nM; in data set [4] (COS transfectants, Scatchard analysis, 8 hours at 4° C., read-out: dissociation constant, low affinity receptor), 0.21 nM; in data set [4] (cell type not stated, read-out: dissociation constant of the high affinity receptor), 0.05 nM. Further, the specific activity result in data set [3] is reported as “at least 160,000 IU per absorbance unit at 280 nanometers”.

B1: secreted EPO receptor: secreted human erythropoietin receptor lacking transmembrane and cytoplasmic domains, tested as conditioned media from a CHO line (protein, UniProt P19235 25-250, looked up)
extracellular domain: APPPNLPDPKFESKAALLAARGPEELLCFTERLEDLVCFWEEAASAGVGPGNYSFSYQLEDEPWKLCRLHQAPTARGAVRFWCSLPTADTSSFVPLELRVTAASGAPRYHRVIHINEVVLLDAPVGLVARLADESGHVVLRWLPPPETPMTSHIRYEVDVSAGNGAGSVQRVEILEGRTECVLSNLRGRTRYTFAVRARMAEPSFGGFWSAWSEPVSLLTPSDLDP
modifications: extracellular domain
notes: secreted human erythropoietin receptor lacking transmembrane and cytoplasmic domains, tested as conditioned media from a CHO line
B1: in the data set on FDCPE cells, the “inhibition of [3H]-thymidine incorporation into FDCPE cells” value is “inhibited the incorporation of [^3 H]-thymidine into the FDCPE cells”.

Values taken from patent US5278065A, “Recombinant DNA endoding an erythropoietin receptor” (Genetics Institute, Inc., priority 1991, dated 1994).
